Read-outs that look alike come from different tables or passages of the source.
Experiments:
[1] = test system: Ba/F3_L858R/T790M/C797S cells; experiment: Ba/F3_L858R/T790M/C797S cell proliferation inhibition assay (CellTiter-Glo); type: cell-based; conditions: Mus musculus
Protocol: Ba/F3_L858R/T790M/C797S Cell Proliferation Inhibition Assay
In the assay, the inhibition effect of the compounds on the proliferation of Ba/F3_L858R/T790M/C797S cells was tested by adopting a CellTiter-Glo method, and the concentration IC50 of the compound for inhibiting half maximal growth of cells was obtained.
Ba/F3_L858R/T790M/C797S cells were constructed by Pharmaron Beijing Co., Ltd.
1640 medium, fetal bovine serum (FBS), Penicillin-Streptomyces, and GlutaMAX-I Supplement, purchased from GIBCO.
(§1) Brigatinib, purchased from Selleck.
(§2) CellTiter-Glo reagent, purchased from Promega.
1) Ba/F3_L858R/T790M/C797S cells were seeded in a 384-well plate at a density of 700 cells/well with 30 μL/well.
(§3) 2) Day 0: […] of gradiently-diluted compounds to be tested with a final concentration of DMSO of 0.1% was added to plate using Echo, and the plate was incubated in a cell incubator for 72 h (37° C., 5% CO2). […] of DMSO was added into each well in blank control group.
(§4) 3) Day 3: 30 μL Cell Titer-Glo reagent was added to each well, and the plate was in the dark under room temperature for 30 min.
(§5) 4) The chemiluminescent signal was detected by an Envision plate reader (PerkinElmer).
(§6) 5) Data analysis was performed using GraphPad Prism software to give the IC50 for compounds.

[2] = test system: Ba/F3_Del19/T790M/C797S cells; experiment: Ba/F3_Del19/T790M/C797S cell proliferation inhibition assay (CellTiter-Glo); type: cell-based; conditions: Mus musculus
Protocol: Ba/F3_Del19/T790M/C797S Cell Proliferation Inhibition Assay
In the assay, the inhibition effect of the compounds on the proliferation of Ba/F3_Del19/T790M/C797S cells was tested by adopting a CellTiter-Glo method, and the concentration IC50 of the compound for inhibiting half maximal growth of cells was obtained.
Ba/F3_Del19/T790M/C797S, purchased from Kyinno Biotechnology Co., Ltd. 1640 medium, fetal bovine serum (FBS), Penicillin-Streptomyces, and GlutaMAX-I Supplement, purchased from GIBCO.
as §1, §2
1) Ba/F3_Del19/T790M/C797S cells were seeded in a 384-well plate at a density of 700 cells/well with 30 μL/well.
as §3, §4, §5
Data analysis was performed using GraphPad Prism 6 software to give the IC50 for compounds.

A431 cells (EGFR WT) = experiment: A431 cell proliferation inhibition assay (CellTiter-Glo); type: cell-based; conditions: Homo sapiens
Protocol: A431 Cell Proliferation Inhibition Assay
In the assay, the inhibition effect of the compounds on the proliferation of A431 cells was tested by adopting a CellTiter-Glo method, and the concentration IC50 of the compound for inhibiting half maximal growth of cells was obtained.
A431 cells, purchased from ATCC.
DMEM medium, fetal bovine serum (FBS), and Penicillin-Streptomycin, purchased from GIBCO.
as §1, §2
1) A431 cells were seeded in a 384-well plate at a density of 800 cells/well with 30 μL/well, and the plate was cultured in a cell incubator for 24 h (37° C., 5% CO2).
as §3, §4, §5, §6

EGFR WT (wild type EGFR) = EGFR WT (wild type EGFR) (Homo sapiens (Human), UniProt P00533); experiment: In vitro enzymatic TR-FRET (HTRF KinEASE-TK) kinase assay, EGFR WT; type: biochemical; conditions: kinase activity, TR-FRET; read-out: EGFR (WT) IC50
Protocol: (I) In Vitro Enzymatic Experiment for EGFR WT and EGFR L858R/T790M/C797S
In the assay, the inhibition effect of the compound on the kinase activity of EGFR WT (wild type EGFR) and EGFR L858R/T790M/C797S was tested by adopting a time-resolved fluorescence resonance energy transfer (TR-FRET) method, and half maximal inhibitory concentration IC50 of the compound on the kinase activity of EGFR was obtained.
EGFR recombinase and EGFR L858R/T790M/C797S recombinase, purchased from Signalchem.
HTRF KinEASE-TK kit, purchased from Cisbio.
DTT, MnCl2, and MgCl2, purchased from Sigma.
ATP, purchased from Promega.
as §1
1) 1× working solution was prepared: 5 mM MgCl2; 1 mM DTT; 1 mM MnCl2 and 1× kinase buffer (in kit).
2) […] of gradiently-diluted compound was transferred to a 384-well plate using Echo 550 (Labcyte).
3) 5 μL of 2× EGFR WT or EGFR L858R/T790M/C797S recombinase solution was added to the 384-well plate, and the plate was incubated at room temperature for 10 min.
4) 5 μL of 2× TK-substrate-biotin substrate solution (containing ATP) was added to the 384-well plate, and the plate was incubated at room temperature for 40 min.
5) 5 μL of assay solution containing Sa-XL 665 HTRF and 5 μL of TK-antibody-Cryptatewas were added to the plate, and the plate was incubated at room temperature for 1 h.
6) The fluorescence signal values at 615 nm and 665 nm were measured for each well using an Envision microplate reader (PerkinElmer).
7) The ratio of fluorescence signal values at 665 nm and 615 nm was calculated for each well.
8) Data analysis was performed using GraphPad Prism software to give the IC50 for compounds.

[3] = BaF3, cell proliferation, 72 h, CellTiter-Glo, read-out: Ba/F3 (L858R/T790M/C797S) IC50
[4] = BaF3, cell proliferation, 72 h, CellTiter-Glo, read-out: Ba/F3 (Del19/T790M/C797S) IC50
[5] = A-431, cell proliferation, 72 h, CellTiter-Glo, read-out: A431 EGFR WT IC50
[6] = BaF3, 72 h, read-out: Ba/F3 (L858R/T790M/C797S) IC50(nM)
[7] = BaF3, 72 h, read-out: Ba/F3 (Del19/T790M/C797S) IC50(nM)
[8] = A-431, 72 h, read-out: A431 EGFR WT IC50(nM)

Sequence of EGFR WT (wild type EGFR) (P00533 25-1210): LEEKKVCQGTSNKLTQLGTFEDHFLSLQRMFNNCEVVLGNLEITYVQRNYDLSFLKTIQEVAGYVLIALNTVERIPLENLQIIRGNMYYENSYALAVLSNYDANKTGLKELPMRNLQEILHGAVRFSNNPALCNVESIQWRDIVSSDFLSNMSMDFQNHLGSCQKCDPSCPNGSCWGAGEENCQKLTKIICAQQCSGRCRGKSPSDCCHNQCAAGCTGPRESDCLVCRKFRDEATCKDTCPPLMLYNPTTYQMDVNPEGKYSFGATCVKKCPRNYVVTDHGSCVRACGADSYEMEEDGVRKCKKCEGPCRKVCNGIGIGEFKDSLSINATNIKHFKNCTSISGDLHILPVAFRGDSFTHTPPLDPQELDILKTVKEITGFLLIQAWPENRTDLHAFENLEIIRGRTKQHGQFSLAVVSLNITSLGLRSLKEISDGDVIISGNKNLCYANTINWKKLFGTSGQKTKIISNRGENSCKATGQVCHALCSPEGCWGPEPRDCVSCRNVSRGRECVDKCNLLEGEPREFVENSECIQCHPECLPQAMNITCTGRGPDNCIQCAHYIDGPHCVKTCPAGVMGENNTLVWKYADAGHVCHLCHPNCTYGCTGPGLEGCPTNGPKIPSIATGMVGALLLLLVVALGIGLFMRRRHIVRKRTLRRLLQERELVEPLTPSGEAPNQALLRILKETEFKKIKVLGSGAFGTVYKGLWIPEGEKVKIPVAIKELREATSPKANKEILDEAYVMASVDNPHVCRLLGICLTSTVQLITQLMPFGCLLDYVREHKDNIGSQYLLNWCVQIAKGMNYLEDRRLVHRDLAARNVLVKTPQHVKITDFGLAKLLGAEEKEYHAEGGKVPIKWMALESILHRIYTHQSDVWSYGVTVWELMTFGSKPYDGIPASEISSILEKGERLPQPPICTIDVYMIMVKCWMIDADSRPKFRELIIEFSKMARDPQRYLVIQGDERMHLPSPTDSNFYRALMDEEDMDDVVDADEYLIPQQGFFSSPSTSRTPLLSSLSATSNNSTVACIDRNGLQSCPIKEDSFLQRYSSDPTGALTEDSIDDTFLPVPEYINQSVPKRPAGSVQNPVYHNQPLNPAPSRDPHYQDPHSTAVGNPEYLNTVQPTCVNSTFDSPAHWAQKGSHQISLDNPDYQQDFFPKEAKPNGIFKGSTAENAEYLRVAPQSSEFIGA

| IC50 [1, 3] [nM] | IC50 [2, 4] [nM] | IC50 (A431 cells (EGFR WT); [5]) [nM] | IC50 (EGFR WT (wild type EGFR)) [nM] | SMILES | IC50 [1, 6] [nM] | IC50 [2, 7] [nM] | IC50 (A431 cells (EGFR WT); [8]) [nM] |
| --- | --- | --- | --- | --- | --- | --- | --- |
| < 10 | < 10 | 50 to 100 |  | COc1cc2c(cc1Nc1ncc(Br)c(Nc3ccc4nccnc4c3P(C)(C)=O)n1)-c1cnn(C)c1CCN2C [Compound 1] |  |  |  |
| < 10 | < 10 | 50 to 100 | 1 to 10 | COc1cc2c(cc1Nc1ncc(Br)c(Nc3ccccc3P(C)(C)=O)n1)-c1cnn(C)c1CCN2C [Compound 2] |  |  |  |
| < 10 | < 10 | 100 to 1000 | 1 to 10 | COc1cc2c(cc1Nc1ncc(Br)c(Nc3ccccc3N(C)S(=O)(=O)C3CC3)n1)-c1cnn(C)c1CCN2C [Compound 3] |  |  |  |
| < 10 | < 10 | 100 to 1000 | 1 to 10 | COc1cc2c(cc1Nc1ncc(Br)c(Nc3ccccc3N(C)S(C)(=O)=O)n1)-c1cnn(C)c1CCN2C [Compound 4] |  |  |  |
| < 10 | < 10 | 100 to 1000 | 1 to 10 | COc1cc2c(cc1Nc1ncc(Br)c(Nc3ccc4nccnc4c3P(C)(C)=O)n1)-c1cnn(C)c1CCN2C(C)C [Compound 6] |  |  |  |
| < 10 | < 10 | 100 to 1000 | 1 to 10 | COc1cc2c(cc1Nc1ncc(C)c(Nc3ccccc3P(C)(C)=O)n1)-c1cnn(C)c1CCN2C [Compound 7] |  |  |  |
| < 10 | < 10 | 50 to 100 | 1 to 10 | COc1cc2c(cc1Nc1ncc(Br)c(Nc3ccc4nccnc4c3P(C)(C)=O)n1)-c1cn(C)nc1CCN2C [Compound 8] |  |  |  |
| < 10 | < 10 | 50 to 100 |  | COc1cc2c(cc1Nc1ncc(Cl)c(Nc3ccc4nccnc4c3P(C)(C)=O)n1)-c1cnn(C)c1CCN2C [Compound 13] |  |  |  |
| < 10 | < 10 | 100 to 1000 |  | COc1cc2c(cc1Nc1ncc(Br)c(Nc3ccccc3NS(C)(=O)=O)n1)-c1cnn(C)c1CCN2C [Compound 32] |  |  |  |
|  |  |  |  | COc1cc2c(cc1Nc1ncc(Br)c(Nc3ccccc3P(C)(C)=O)n1)-c1cnn(C)c1CCC2N (stereo not drawn) [Compound 50] | 10 to 50 | 10 to 50 | 100 to 1000 |
| 10 to 50 | 10 to 50 | 100 to 1000 |  | COc1cc2c(cc1Nc1ncc(Br)c(Nc3ccccc3P(C)(C)=O)n1)-c1cnn(C)c1CCN2C1CN(C)C1 [Compound 59] |  |  |  |
| < 10 | < 10 | 10 to 50 |  | COc1cc2c(cc1Nc1ncc(Br)c(Nc3ccc4nccnc4c3P(C)(C)=O)n1)-c1cnn(C)c1CCN2C1CCN(C)CC1 [Compound 62] |  |  |  |
| < 10 | < 10 | 10 to 50 |  | COc1cc2c(cc1Nc1ncc(Br)c(Nc3ccc4nccnc4c3P(C)(C)=O)n1)-c1cnn(C)c1CCN2C1CN(C(C)C)C1 [Compound 63] |  |  |  |
| 10 to 50 | < 10 | 100 to 1000 |  | COc1cc2c(cc1Nc1ncc(Br)c(Nc3ccccc3P(C)(C)=O)n1)-c1cnn(C)c1CCN2C1COC1 [Compound 64] |  |  |  |
| < 10 | < 10 | 50 to 100 |  | COc1cc2c(cc1Nc1ncc(Br)c(Nc3ccc4nccnc4c3P(C)(C)=O)n1)-c1cnn(C)c1CCN2C1CCN(C)CC1F (stereo not drawn) [Compound 67] |  |  |  |
| < 10 | < 10 | 100 to 1000 |  | COc1cc2c(cc1Nc1ncc(Br)c(Nc3ccccc3P(C)(C)=O)n1)-c1cnn(C)c1CCN2C1CN(CCF)C1 [Compound 69] |  |  |  |
| < 10 | < 10 | 10 to 50 |  | COc1cc2c(cc1Nc1ncc(Br)c(Nc3ccc4nccnc4c3P(C)(C)=O)n1)-c1cnn(C)c1CCN2C1CN(CC2CC2)C1 [Compound 70] |  |  |  |
| < 10 | < 10 | 100 to 1000 |  | COc1cc2c(cc1Nc1ncc(Br)c(Nc3ccc4nccnc4c3P(C)(C)=O)n1)-c1cnn(C)c1CCN2C1CC1 [Compound 74] |  |  |  |
|  |  |  |  | COc1cc2c(cc1Nc1ncc(Br)c(Nc3ccc4nccnc4c3P(C)(C)=S)n1)-c1cnn(C)c1CCN2C1CCN(C)CC1 [Compound 76] | < 10 | < 10 | 50 to 100 |
| < 10 | < 10 | 10 to 50 |  | COc1cc2c(cc1Nc1ncc(Br)c(Nc3ccc4nccnc4c3P(C)(C)=O)n1)-c1cnn(C)c1CCN2C1CCCN(C)C1 (stereo not drawn) [Compound 84] |  |  |  |
| < 10 | < 10 | 100 to 1000 |  | COc1cc2c(cc1Nc1ncc(C)c(Nc3ccc4nccnc4c3P(C)(C)=O)n1)-c1cnn(C)c1CCN2C(C)C [Compound 85] |  |  |  |
| < 10 | < 10 | 50 to 100 |  | COc1cc2c(cc1Nc1ncc(Br)c(Nc3ccc4nccnc4c3P(C)(C)=O)n1)-c1cnn(C)c1CCN2C1CCOCC1 [Compound 88] |  |  |  |
| 10 to 50 | 10 to 50 | 10 to 50 |  | COc1cc2c(cc1Nc1ncc(Br)c(Nc3ccc4nccnc4c3P(C)(C)=O)n1)-c1cnn(C)c1CCN2C1CC2(C1)CN(C)C2 [Compound 89] |  |  |  |
| < 10 | < 10 | 10 to 50 |  | COc1cc2c(cc1Nc1ncc(Br)c(Nc3ccc4nccnc4c3P(C)(C)=O)n1)-c1cnn(C)c1CCN2C1CC2(C1)CN(C(C)C)C2 [Compound 90] |  |  |  |
|  |  |  |  | COc1cc2c(cc1Nc1ncc(Br)c(Nc3ccc4nccnc4c3P(C)(C)=S)n1)-c1cnn(C)c1CCN2C1CC2(C1)CN(C)C2 [Compound 93] | 10 to 50 | < 10 | 10 to 50 |
|  |  |  |  | COc1cc2c(cc1Nc1ncc(Br)c(Nc3ccc4nccnc4c3NS(C)(=O)=O)n1)-c1cnn(C)c1CCN2 [Compound 114] | < 10 | < 10 | 100 to 1000 |
| 10 to 50 | 10 to 50 | > 1000 |  | COc1cc2c(cc1Nc1ncc(Br)c(Nc3ccccc3N(C(C)C)S(C)(=O)=O)n1)-c1cnn(C)c1CCN2C(C)C [Compound 124] |  |  |  |
| 100 to 1000 | 100 to 1000 | 100 to 1000 |  | CNS(=O)(=O)c1ccccc1Nc1nc(Nc2cc3c(cc2OC)N(C(C)C)CCc2c-3cnn2C)ncc1Br [Compound 127] |  |  |  |
| < 10 | < 10 | 100 to 1000 |  | COc1cc2c(cc1Nc1ncc(Br)c(Nc3ccc4nccnc4c3NS(C)(=O)=O)n1)-c1cnn(C)c1CCN2CC(C)C [Compound 133] |  |  |  |
| < 10 | < 10 | 100 to 1000 |  | CCN1CCc2c(cnn2C)-c2cc(Nc3ncc(Br)c(Nc4ccc5nccnc5c4NS(C)(=O)=O)n3)c(OC)cc21 [Compound 139] |  |  |  |

From patent US20240034743A9, “TRICYCLIC COMPOUNDS AS EGFR INHIBITORS” (QILU PHARMACEUTICAL CO., LTD., priority 2020, published 2024)
